How the values were obtained:
gut microbiota = experiment: Mouse model of Clostridium difficile infection: shifts in microbial gut constituents (16S rRNA); type: in vivo, mice (female C57BL/6); settings: Day 6, FIG. 13; predicted from 16S rRNA sequencing using PICRUST
Description: (§1) Mice (female C57BL/6, 8-10 weeks old, 16-18 grams each; Harlan Laboratories, Indianapolis, Ind.) were housed in groups of 3 per cage, with 4 cages per treatment group. Mice were exposed to a cocktail of antibiotics in their drinking water for a period of 9 days, starting on day −14, fourteen days before Clostridium difficile challenge on day 0. The antibiotic cocktail consisted of 1% glucose, kanamycin (0.5 mg/ml), gentamicin (0.044 mg/ml), colistin (1062.5 U/ml), metronidazole (0.269 mg/ml), ciprofloxacin (0.156 mg/ml), ampicillin (0.1 mg/ml) and vancomycin (0.056 mg/ml). Three days prior to Clostridium difficile challenge (on Day −3), mice received a single dose of clindamycin (10 mg/kg) in a volume of 0.5 mL distilled water by oral gavage (PO) (see Table 10). All chemicals were purchased from Sigma-Aldrich Corp. (St. Louis, Mo.). On day 0, mice were challenged with Clostridium difficile (strain VPI 10463 (ATCC-43255)) spores at approximately 4.5 log10 spores per mouse, PO, in a dose volume of 0.5 mL distilled water.
To determine how the gut microbiota composition responds to treatment with glycan therapeutics, 16S rRNA sequencing of fecal pellets on the V4 variable region using standard protocols from the Earth Microbiome Project was performed (www.earthmicrobiome.org/emp-standard-protocols/). […]

[1] = tested on: Clostridium difficile (strain VPI 10463 (ATCC-43255)); experiment: Mouse model of Clostridium difficile infection: disease-associated phenotypes; type: in vivo, mice (female C57BL/6)
Description: This experiment was conducted to analyze the effects of glycan therapeutics in a mouse model of Clostridium difficile infection (Chen et al, 2008, A Mouse Model of Clostridium difficile—Associated Disease. Gastroenterology 135(6), 1984-1992). In this model, normal mice were exposed to an antibiotic regimen that renders them susceptible to C. difficile infection and disease symptoms, similar with respect to their development and manifestation of human clinical disease. In humans, the disease is most often the result of exposure to broad spectrum antibiotics which is thought to result in intestinal dysbiosis and subsequent increased colonic colonization with C. difficile. The increased bio-burden of C. difficile leads to toxin production by the bacterium and colonic inflammation. Clinical manifestations in humans include diarrhea, weight loss, intestinal inflammation, fever and dehydration. The clinical incidence of C. difficile infection and disease is about 750,000 cases per year in the US.
as §1
Disease-associated phenotypes were recorded for a duration of ten days starting on the day of Clostridium difficile challenge (on day 0) through day 10. The phenotypes, including lethargy, hunched posture and ruffled coat, wet tail/abdomen and hypothermia were scored from 0 to 4: Normal=0; Lethargic=1; Lethargic+Hunched=2; Lethargic+Hunched+Wet tail/abdomen (diarrhea)=3; and Lethargic+Hunched+Wet tail/abdomen+Hypothermic=4. Death (day 0 to day 10 or 11) and weight (day 1 to day 7 and day 10) of the animals was also monitored and recorded.
A treatment's ability to protect animals from death through day 6 in these experiments indicates disease prevention, e.g., in a human.
Effects of treatments was assessed by comparing the disease-associated phenotypes in glycan-treated, untreated (plain water) and vancomycin-treated groups. FOS is a commercially-available, non-digestible fructooligosaccharide.

[2] = vancomycin PO gavage QD days 0 to 4

CN[C@H](CC(C)C)C(=O)N[C@H]1C(=O)N[C@@H](CC(N)=O)C(=O)N[C@H]2C(=O)N[C@H]3C(=O)N[C@H](C(=O)N[C@H](C(=O)O)c4cc(O)cc(O)c4-c4cc3ccc4O)[C@H](O)c3ccc(c(Cl)c3)Oc3cc2cc(c3O[C@@H]2O[C@H](CO)[C@@H](O)[C@H](O)[C@H]2O[C@H]2C[C@](C)(N)[C@H](O)[C@H](C)O2)Oc2ccc(cc2Cl)[C@H]1O [Vancomycin, vancomycin]
predicted functional potential of the gut microbiome to convert primary bile acids to secondary bile acids (gut microbiota): not observed
animal survival versus animals treated with water (vehicle) ([1]; Kaplan-Meier, FIG. 10): significant difference
clinical score of survivors ([1]; score 0 to 4, after end of treatment, days 7 to 10/11): above 0
animals died by day 10 [1, 2]: 17%
animals survived to day 7 [1, 2]: 100%
clinical signs on day 10 [1, 2]: exhibited clinical signs

— US10702542B2, “Glycan therapeutics and related methods thereof” (priority 2015, dated 2020)
